Earlier results on one compound are cited in patent US20240180159A1, “NEW OIL SUSPENSION CONCENTRATE COMPOSITION” (SYNGENTA CROP PROTECTION AG, priority 2021, published 2024).

The conditions of this data set: basic pH 8-14 conditions.

`CN1COCN(Cc2cnc(Cl)s2)/C1=N\[N+](=O)[O-]` [thiamethoxam]: the susceptibility to hydrolysis result is “susceptible to hydrolysis”.
